# Data from publication PMC10758095, “Selectively targeting BCL6 using a small molecule inhibitor is a potential therapeutic strategy for ovarian cancer” (International Journal of Biological Sciences, 2024).
# Target: T1, BCL6 (Homo sapiens, UniProt P41182)
# T1 construct: BTB domain
# Assay: SPR (also HTRF BCL6-BTB/SMRT disruption)
# Format: binding
smiles,measurement,value
C[C@@H]1CN(c2ncc(F)c(Nc3ccc4oc(=O)ccc4c3)n2)C[C@H](C)N1 [WK369],Kd,2240 nM
